In patent US10829452B2, “Histone methyltransferase inhibitors” (GLOBAL BLOOD THERAPEUTICS, INC., priority 2016, dated 2020) one finds IC50 data, which are given here for 14 compounds.

Counter-ions that a name gives are not always drawn.

The experiment has as its target T1, G9a (Homo sapiens, UniProt Q96KQ7).
T1 sequence (Q96KQ7 1-1210): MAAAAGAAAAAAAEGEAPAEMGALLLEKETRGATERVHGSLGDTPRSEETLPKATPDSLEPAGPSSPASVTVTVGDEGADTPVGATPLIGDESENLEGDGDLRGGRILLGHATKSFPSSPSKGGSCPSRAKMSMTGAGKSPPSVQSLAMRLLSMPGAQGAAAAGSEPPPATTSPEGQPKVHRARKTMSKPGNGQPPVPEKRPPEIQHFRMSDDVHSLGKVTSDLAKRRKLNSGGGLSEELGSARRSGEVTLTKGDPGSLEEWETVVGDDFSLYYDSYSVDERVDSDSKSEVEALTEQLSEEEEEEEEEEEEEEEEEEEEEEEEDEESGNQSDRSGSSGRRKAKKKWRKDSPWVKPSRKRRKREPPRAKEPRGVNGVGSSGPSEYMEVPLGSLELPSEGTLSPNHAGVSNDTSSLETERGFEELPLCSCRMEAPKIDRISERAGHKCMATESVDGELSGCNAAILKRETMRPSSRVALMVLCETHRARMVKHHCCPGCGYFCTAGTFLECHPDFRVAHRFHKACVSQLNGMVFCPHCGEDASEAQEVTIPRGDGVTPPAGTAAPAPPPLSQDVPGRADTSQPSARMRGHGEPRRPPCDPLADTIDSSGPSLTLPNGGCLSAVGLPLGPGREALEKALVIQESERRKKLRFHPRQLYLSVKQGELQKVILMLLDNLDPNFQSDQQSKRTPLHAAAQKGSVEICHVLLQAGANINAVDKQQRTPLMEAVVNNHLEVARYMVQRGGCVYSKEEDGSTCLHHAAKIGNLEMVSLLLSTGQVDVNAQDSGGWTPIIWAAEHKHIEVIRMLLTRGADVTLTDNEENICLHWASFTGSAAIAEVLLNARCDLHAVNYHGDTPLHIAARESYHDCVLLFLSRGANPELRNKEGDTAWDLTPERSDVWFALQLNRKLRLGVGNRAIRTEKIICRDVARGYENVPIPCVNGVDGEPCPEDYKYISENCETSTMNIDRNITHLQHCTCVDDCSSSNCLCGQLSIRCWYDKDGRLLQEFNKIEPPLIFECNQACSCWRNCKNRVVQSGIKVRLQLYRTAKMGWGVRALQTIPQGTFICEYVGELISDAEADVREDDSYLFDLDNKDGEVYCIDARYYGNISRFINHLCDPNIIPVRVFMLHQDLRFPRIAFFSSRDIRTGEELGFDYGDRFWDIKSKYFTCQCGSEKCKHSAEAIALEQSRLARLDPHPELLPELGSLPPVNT
The experiment in a line: G9a AlphaLISA enzymatic activity assay. It counts as biochemical. The note with it: 0.15 nM G9a, 15 uM S-adenosyl-methionine, 100 nM biotinylated histone 3 peptide (1-21), 1 hour at room temperature; read-out: G9a in (uM) (IC50, concentration that produced 50% inhibition). From the text: The G9a AlphaLISA assay was used to detect the methyl modifications of a biotinylated histone H3 peptide by the compounds. These modifications are done by the histone methyl transferase activity of the G9a enzyme. The assay consists of reading a chemiluminescent signal at 615 nm; this signal is generated by a laser excitation at 680 nm that transfers a reactive singlet oxygen between the donor beads and acceptor beads. Donor beads are streptavidin conjugated and bind to the biotin on the peptide. Acceptor beads are conjugated with an antibody that recognizes the specific G9a methyl mark on the peptide. If there is a methyl mark on the peptide, the acceptor beads will bind to the peptide. Upon binding, the acceptor beads will be in close proximity (<200 nm) of the donor beads and when the donor beads are excited, the transfer of the oxygen can occur and a strong signal will be generated. If there is no methyl mark, the interaction between beads will not occur and signal will be at background levels.
For the assay, the following buffer was used to set up reactions: 50 mM Tris-HCl pH9, 50 mM NaCl, 0.01% Tween-20 and 1 mM DTT (added fresh prior to starting the reactions). The assay is set up by adding a final concentration of 0.15 nM G9a, 15 uM S-adenosyl-methionine and, 100 nM biotinylated histone 3 peptide (1-21). The reaction is incubated at room temperature for 1 hour, and subsequently quenched by the addition of the acceptor beads (anti-H3k9me2 AlphaLISA acceptor beads, PerkinElmer # AL117) at a final concentration of 20 ug/mL. The acceptor beads are incubated for 1 hour. After 1 hour, the donor beads are added at a final concentration of 20 ug/mL (Alpha Streptavidin donor beads, PerkinElmer #6760002). Donor beads are incubated for 0.5 hours. Both donor and acceptor beads are resuspended in AlphaLISA 5X Epigenetics Buffer 1 Kit (PerkinElmer # AL008) prior to addition to the reaction. All manipulations and incubations with the donor and acceptor beads are done in subdued light. Signal is detected in an EnVision plate reader in Alpha mode (see ACS Med Chem Lett. 2014 Jan. 2; 5(2):205-9. doi: 10.1021/m1400496h. eCollection 2014. Discovery and development of potent and selective inhibitors of histone methyltransferase g9a.)
Percent inhibition was calculated for each compound dilution and the concentration that produced 50% inhibition was calculated. This value is presented as the IC50.
In the case of `COc1cc2c3c(c(N[C@H]4C[C@H](O)C4)nc2cc1OCCCN1CCCC1)CCCC3` [Example 64, 3-({2-methoxy-3-[3-(pyrrolidin-1-yl)propoxy]-7,8,9,10-tetrahydrophenanthridin-6-yl}amino)cyclobutan-1-ol formate], the IC50 came to 0.5 µM.

`COc1cc2c3c(c(NC(C)C)nc2cc1OCCCN(C)C)CCC3` [Example 92, 7-[3-(dimethylamino)propoxy]-8-methoxy-N-(propan-2-yl)-1H,2H,3H-cyclopenta[c]quinolin-4-amine formate]: the IC50 was determined as 0.059 µM.

For the compound `COc1cc2c3c(c(NCCC#N)nc2cc1OCCCN1CCCC1)CCC3` [Example 119, 3-({8-methoxy-7-[3-(pyrrolidin-1-yl)propoxy]-1H,2H,3H-cyclopenta[c]quinolin-4-yl}amino)propanenitrile formate], the IC50 was 0.11 µM.

With `COc1cc2c3c(c(-c4ccccc4)nc2cc1OCCCN1CCCC1)CCC3` [Example 111, 1-[3-({8-methoxy-4-phenyl-1H,2H,3H-cyclopenta[c]quinolin-7-yl}oxy)propyl]pyrrolidine formate], the IC50 was determined as 4.9 µM.

Consider `COc1cc2c3c(c(NCC(C)C)nc2cc1OCCCN1CCCC1)CC(C)(C)C3` [Example 95, N-isobutyl-8-methoxy-2,2-dimethyl-7-(3-(pyrrolidin-1-yl)propoxy)-2,3-dihydro-1H-cyclopenta[c]quinolin-4-amine formate], for which the IC50 turned out to be 0.07 µM.

For `COc1cc2c(cc1OCCCN1CCCC1)nc(NC(C)C)c1cccnc12` [Example 52, 9-methoxy-N-(propan-2-yl)-8-[3-(pyrrolidin-1-yl)propoxy]benzo[h]1,6-naphthyridin-5-amine formate], the IC50 was determined as 0.34 µM.

Consider `CCNc1nc2cc(OCCCN3CCCC3)c(OC)cc2c2c1COCC2` [Example 58, N-ethyl-9-methoxy-8-[3-(pyrrolidin-1-yl)propoxy]-1H,2H,4H-pyrano[3,4-c]quinolin-5-amine formate], for which the IC50 was determined as 0.17 µM.

As for `COc1cc2c3c(c(C4CCOC4)nc2cc1OCCCN1CCCC1)CCC3` (centres unmarked) [Example 98, 1-(3-{[8-methoxy-4-(oxolan-3-yl)-1H,2H,3H-cyclopenta[c]quinolin-7-yl]oxy}propyl)pyrrolidine formate], the IC50 is above 10 µM.

As to `COc1cc2c3c(c(NC4CC4)nc2cc1OCCCN1CCCC1)COCC3` [Example 55, N-cyclopropyl-9-methoxy-8-[3-(pyrrolidin-1-yl)propoxy]-1H,2H,4H-pyrano[3,4-c]-quinolin-5-amine formate], the IC50 is 0.32 µM.

For `COc1cc2c3c(c(C4CC4)nc2cc1OCCCN1CCCC1)CC(C)(C)N3` [Example 36, 1-[3-({4-cyclopropyl-8-methoxy-2,2-dimethyl-1H,2H,3H-pyrrolo[3,2-c]quinolin-7-yl}oxy)propyl]pyrrolidine formate], the IC50 stood at 0.009 µM.

As for `COc1cc2c3c(c(NC(C)C)nc2cc1OCCCN1CCCC1)CCC3` [Example 3, 8-methoxy-N-(propan-2-yl)-7-[3-(pyrrolidin-1-yl)propoxy]-1H,2H,3H-cyclopenta-[c]quinolin-4-amine trifluoroacetate], the IC50 stood at 0.015 µM.

Turning to `COc1cc2c3c(c(N[C@H]4C[C@H](O)C4)nc2cc1OCCCN1CCCC1)CCC3` [Example 16, (1r,3r-3-({8-methoxy-7-[3-(pyrrolidin-1-yl)propoxy]-1H,2H,3H-cyclopenta[c]quinolin-4-yl}amino)cyclobutan-1-ol trifluoroacetate], the IC50 amounted to 0.11 µM.

Turning to `COc1cc2c3c(c(C4CCCC4)nc2cc1OCCCN1CCCC1)CC(C)(C)N3` [Example 113, 1-[3-({4-cyclopentyl-8-methoxy-2,2-dimethyl-1H,2H,3H-pyrrolo[3,2-c]quinolin-7-yl}oxy)propyl]pyrrolidine hydrochloride], the IC50 is 0.006 µM.

In the case of `COc1cc2c3c(c(NCC(C)(C)C)nc2cc1OCCCN1CCCC1)CCC3` [Example 101, N-(2,2-dimethylpropyl)-8-methoxy-7-[3-(pyrrolidin-1-yl)propoxy]-1H,2H,3H-cyclopenta[c]quinolin-4-amine formate], the IC50 was 0.07 µM.
